Experimental data as given in patent US7271190B2, “Indazole compounds as β3 adrenoceptor agonist” (Asahi Kasei Pharma Corporation, priority 2001, dated 2007).
Structures can show the parent of a compound that is named as a salt.

Legend:
human β3 = target: T1, human β3 (Homo sapiens, UniProt P13945); assay: Human β3-agonist activities (cAMP in transfected CHO cells); format: cell-based; conditions: for EC50: CHO cells expressing human β3, cAMP, 30 minutes; for Emax: CHO, read-out: Intrinsic activity*
T1 construct: used as a probe to obtain the full length human β3 gene from a human genomic library; expressed in transfected cells; host or cells: CHO (Chinese hamster ovary) cells, pcDNA3 vector
T1 sequence (P13945 whole entry): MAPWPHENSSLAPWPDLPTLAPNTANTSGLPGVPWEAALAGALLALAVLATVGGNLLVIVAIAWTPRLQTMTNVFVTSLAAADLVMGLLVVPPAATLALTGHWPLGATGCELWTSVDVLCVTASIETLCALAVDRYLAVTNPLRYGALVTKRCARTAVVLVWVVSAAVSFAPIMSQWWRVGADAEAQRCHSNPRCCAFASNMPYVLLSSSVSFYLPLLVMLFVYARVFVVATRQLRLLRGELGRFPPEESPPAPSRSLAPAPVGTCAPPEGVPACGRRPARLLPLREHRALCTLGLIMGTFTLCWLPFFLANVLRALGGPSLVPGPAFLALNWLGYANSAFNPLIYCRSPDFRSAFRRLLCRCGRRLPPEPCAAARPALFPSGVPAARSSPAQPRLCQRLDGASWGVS
Experimental: Human β3-Agonist Activities
Human β3-agonist activities were determined using CHO (Chinese hamster ovary) cells transfected with pcDNA3 (mfd. by Invitrogen) to which human β3 gene had been inserted. Human β3 fragment was first obtained from human adipose tissue cDNA (mfd. by Clonetech) by PCR using the primer of β3 (Krief, et al., J. Clin. Invest., vol. 91, pp. 344-349 (1993)). The human β3 fragment thus obtained was used as a probe to obtain the full length human β3 gene from a human genomic library (mfd. by Clonetech). The above cells were cultured in a Ham F-12 medium supplemented with 10% fetal bovine serum, 400 μg/mL geneticin (Gibco BRL), 100 U/mL penicillin and […] streptomycin. After placing these cells (5×10^5) into a 6-well plate and culturing them for 24 hours, they were allowed to stand on a serum-free Ham F-12 medium for 2 hours. The compound was first dissolved in DMSO, repeatedly diluted by ten times with Ham F-12 supplemented with 1 mM isobutylmethyl-xanthine and 1 mM ascorbic acid to a final concentration of from 10^−5 to 10^−12 M, and then added to the cells. After the cells were cultured for 30 minutes, the medium was removed, followed by addition of 0.5 mL of 1 N NaOH. The medium was allowed to stand for 20 minutes and then 0.5 mL of 1 N acetic acid was added to the medium. The medium was stirred and then centrifuged, followed by quantitating cAMP with cAMP EIA kit (mfd. by Cayman). Isoproterenol was purchased from RBI (Research Biochemicals International).

ddy mice = assay: Toxicity test, oral, mice; format: in vivo; conditions: orally, 100 mg/kg, 6-week old male ddy mice, eight animals
Experimental: Each of the present compounds synthesized in Examples 1 and 2 were orally administered to 6-week old male ddy mice (CHARLES RIVER JAPAN) at 100 mg/kg. […] The other compounds, which achieved the same results, were also shown to have a low toxicity.

[1] = Relative activities (%) as compared with isoproterenol

Compound | EC50 (human β3) | Emax (human β3; [1]) | animals found dead (ddy mice) | Intrinsic activity* (human β3; [1])
CCc1c(-c2cccnc2)[nH]c2cc(OCCNC[C@H](O)c3cccc(NS(C)(=O)=O)c3)ccc12 [Example 73, (R)-N-[3-[2-[2-(3-ethyl-2-pyridin-3-yl-1H-indol-6-yloxy)ethylamino]-1-hydroxyethyl]phenyl]methanesulfonamide] | 3.5 nM | 75% | – | –
Cc1c(C2CCCN(C(=O)OC(C)(C)C)C2)[nH]c2cc(OCCNC[C@H](O)c3cccc(NS(C)(=O)=O)c3)ccc12 (stereo partly drawn) [Example 75, (R)-N-[3-[2-[2-[2-(N′-t-butyloxycarbonylpiperidin-3-yl)-3-methyl-1H-indol-6-yloxy]ethylamino]-1-hydroxyethyl]phenyl]methanesulfonamide] | 4.4 nM | 79% | – | –
CCOC(=O)c1[nH]c2cc(OCCNC[C@H](O)c3cccc(NS(C)(=O)=O)c3)ccc2c1C [Example 1, ethyl (R)-6-[2-[2-(3-methylsulfonylamino)phenyl-2-hydroxyethylamino]ethoxy]-3-methyl-1H-indole-2-carboxylate hydrochloride] | 15 nM | 97% | none of the eight animals were found to be dead | –
CCOC(=O)CCc1c(CC)[nH]c2cc(OCCNC[C@H](O)c3cccc(NS(C)(=O)=O)c3)ccc12 [Example 20] | 32 nM | 55% | – | –
CCOC(=O)CCc1[nH]c2cc(OCCNC[C@H](O)c3cccc(NS(C)(=O)=O)c3)ccc2c1C [Example 82, ethyl (R)-3-[3-methyl-6-[2-[2-(3-methylsulfonylaminophenyl)-2-hydroxyethylamino]ethoxy]-1H-indol-2-yl]propionate] | 1.4 nM | 81% | – | –
Cc1c(C(=O)O)[nH]c2cc(OCCNC[C@H](O)c3cccc(NS(C)(=O)=O)c3)ccc12 [Example 2, (R)-6-[2-[2-(3-methylsulfonylamino)phenyl-2-hydroxyethylamino]ethoxy]-3-methyl-1H-indole-2-carboxylic acid] | 18 nM | 124% | none of the eight animals were found to be dead | –
Cc1c(C2CCCNC2)[nH]c2cc(OC[C@@H](O)NCCc3cccc(NS(C)(=O)=O)c3)ccc12 (stereo partly drawn) [Example 76, (R)-N-[3-[2-[1-hydroxy-2-(3-methyl-2-piperidin-3-yl-1H-indol-6-yloxy)ethylamino]ethyl]phenyl]methanesulfonamide] | 21 nM | – | – | 76%
CCOC(=O)CCc1c(C)[nH]c2cc(OCCNC[C@H](O)c3cccc(NS(C)(=O)=O)c3)ccc12 [Example 13, ethyl (R)-3-[6-[2-[2-(3-methylsulfonylamino)phenyl-2-hydroxyethylamino]ethoxy]-2-methyl-1H-indol-3-yl]propionate] | 23 nM | 38% | – | –

Now from value to compound, other results behind:

EC50 (human β3) | Emax (human β3; [1]) | Compound | animals found dead (ddy mice) | Intrinsic activity* (human β3; [1])
3.9 nM | 71% | Cc1c(-c2ccncc2)[nH]c2cc(OCCNC[C@H](O)c3cccc(NS(C)(=O)=O)c3)ccc12 [Example 74, (R)-N-[3-[1-hydroxy-2-[2-(3-methyl-2-pyridin-4-yl-1H-indol-6-yloxy)ethylamino]ethyl]phenyl]methanesulfonamide] | – | –
11 nM | 80% | CNS(=O)(=O)c1cc([C@@H](O)CNCCOc2ccc3c(C)n[nH]c3c2)ccc1O [Example 89, (R)-N-methyl-[5-[2-[2-(3-methylindazol-6-yloxy)ethylamino]-1-hydroxyethyl]-2-hydroxyl]benzenesulfonamide] | – | –
3.4 nM | 65% | Cc1c(-c2cccnc2)[nH]c2cc(OCCNC[C@H](O)c3ccc(F)c(NS(C)(=O)=O)c3)ccc12 [Example 79, (R)-N-[2-fluoro-5-[1-hydroxy-2-[2-(3-methyl-2-pyridin-3-yl-1H-indol-6-yloxy)ethylamino]ethyl]phenyl]methanesulfonamide] | – | –
2.8 nM | 105% | Cc1c(-c2cccnc2)[nH]c2cc(OCCNC[C@H](O)c3cccc(NS(C)(=O)=O)c3)ccc12 [Example 72, (R)-N-[3-[1-hydroxy-2-[2-(3-methyl-2-pyridin-3-yl-1H-indol-6-yloxy)ethylamino]ethyl]phenyl]methanesulfonamide] | – | –
26 nM | 64% | COc1n[nH]c2cc(OCCNC[C@H](O)c3cccc(NS(C)(=O)=O)c3)ccc12 [Example 86, (R)-N-[3-[2-[2-(3-methoxyindazol-6-yloxy)ethylamino]-1-hydroxyethyl]phenyl]methanesulfonamide] | – | –
2.8 nM | 63% | CCOC(=O)CCc1[nH]c2cc(OCCNC[C@H](O)c3ccc(F)c(NS(C)(=O)=O)c3)ccc2c1C [Example 80, ethyl (R)-3-[6-[2-[2-(4-fluoro-3-methylsulfonylaminophenyl)-2-hydroxyethylamino]ethoxy]-3-methyl-1H-indol-2-yl]propionate] | – | –
4.7 nM | 52% | Cc1n[nH]c2cc(OCCNC[C@H](O)c3ccc(Cl)c(NS(C)(=O)=O)c3)ccc12 [Example 88, (R)-N-[5-[2-[2-(3-methylindazol-6-yloxy)ethylamino]-1-hydroxyethyl]-2-chlorophenyl]methanesulfonamide] | – | –
12 nM | 81% | Cc1n[nH]c2cc(OCCNC[C@H](O)c3cccc(NS(C)(=O)=O)c3)ccc12 [Example 84, (R)-N-[3-[2-[2-(3-methylindazol-6-yloxy)ethylamino]-1-hydroxyethyl]phenyl]methanesulfonamide hydrochloride] | – | –
2.8 nM | 77% | Cc1c(CCC(=O)N(C)C)[nH]c2cc(OCCNC[C@H](O)c3cccc(NS(C)(=O)=O)c3)ccc12 [Example 81] | – | –
